From patent publication US7196192B2, “28-epirapalogs” (Ariad Gene Therapeutics, Inc., priority 1999, dated 2007) come the findings set out here.

One assay concerns the target FKBP (Homo sapiens, UniProt P62942). In words: FKBP competitive binding assay based on fluorescence polarization (FP). The note with it: competitive FP binding. As to the method: A Competitive Binding FP Assay is described in detail in WO99/36553 and WO96/41865. That assay permits the in vitro measurement of an IC50 value for a given compound which reflects its ability to bind to an FKBP-protein in competition with a labeled FKBP ligand, such as, for example, FK506.
(§1) A diverse group of C7-modified 28-epirapalogs were prepared as described in Example 4.

Assay [1] deals with T1, transcriptional switch components containing FKBP and 2098L mutant FRB domains (Homo sapiens, UniProt P42345+P62942).
T1 construct: transcriptional switchcomponents containing FKBP and 2098L mutant FRB domains, respectively; fused on or other part: The two switch components are separate chimeric proteins; Neither is given for this cell line
In words: transcription assay in engineered HD1080 cells expressing SEAP (txn 2098L). It is filed as cell-based. In short, it runs like this:
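HT1080-type engineered HD1080 cells constitutively express FKBP and 2098L-mutant FRB switch components and express SEAP upon compound-induced multimerization. Compound added to medium; secreted SEAP reporter measured after incubation. EC50 derived.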

In a further assay the test system is murine splenocyte. In words: murine splenocyte assay for immunosuppressive activity. It is filed as cell-based. The note with it: Mus musculus, Splenocyte, read-out: Splenocyte IC50. As to the method: 3. Conventional murine splenocyte assay for immunosuppressive activity.
as §1

The mark [2] stands for this setting: fluorescein-labelled FK506 probe (AP1491), read-out: FKBP binding IC50.
[3] abbreviates: HD1080 cells, FKBP and 2098L mutant FRB switch, SEAP reporter, read-out: txn 2098L EC50.
Where [4] appears, read: murine splenocyte assay, immunosuppressive activity.

Like-named read-outs stand apart in the source and are kept apart here.

Chain of FKBP (P62942 whole entry): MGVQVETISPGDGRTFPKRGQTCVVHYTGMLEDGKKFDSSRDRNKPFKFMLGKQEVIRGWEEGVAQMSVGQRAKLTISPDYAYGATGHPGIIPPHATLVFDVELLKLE
T1 sequence (P62942 2-108 limits assumed, stated change not applied, other chains not shown): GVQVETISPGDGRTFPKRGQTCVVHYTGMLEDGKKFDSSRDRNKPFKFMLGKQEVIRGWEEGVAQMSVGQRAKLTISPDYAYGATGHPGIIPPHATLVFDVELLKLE

The IC50 is the concentration that inhibits the measured activity by half. By EC50 is commonly meant the concentration that produces a half-maximal response. Take `CO[C@@H]1C[C@H](C[C@@H](C)[C@@H]2CC(=O)[C@H](C)/C=C(\C)[C@H](O)[C@@H](OC)C(=O)[C@H](C)C[C@H](C)/C=C/C=C/C=C(\C)[C@@H](Oc3ccccc3)C[C@@H]3CC[C@@H](C)[C@@](O)(O3)C(=O)C(=O)N3CCCC[C@H]3C(=O)O2)CC[C@H]1O` [28-epi-7S-phenyloxy]: the IC50 on FKBP (methods of Example 2.5, read-out: FKBP IC50) is 0.036 µM; with murine splenocyte (mouse splenocyte assay, methods of Example 2.5) it was 0.478 to 2.5 µM. Besides, the EC50 in assay [1] (cellular transcription assay, methods of Example 2.5, read-out: TXN 2098L EC50) was determined as 0.008 µM. Moreover, in assay [1] (superscript mark on EC50 cell), the “TXN 2098L peak relative to rapamycin peak” value is “(−) (peak was <80% rapamycin peak)”.
Consider `COCO[C@@H]1CC[C@@H](C[C@@H](C)[C@@H]2CC(=O)[C@H](C)/C=C(\C)[C@H](O)[C@@H](OC)C(=O)[C@H](C)C[C@H](C)/C=C/C=C/C=C(\C)[C@@H](OC)C[C@@H]3CC[C@@H](C)[C@@](O)(O3)C(=O)C(=O)N3CCCC[C@H]3C(=O)O2)C[C@H]1OC` [43-O-MOM-28-epirapamycin], for which the IC50 is 0.027 µM on FKBP (setting [2]) and 0.0006 to 0.0016 µM with murine splenocyte (setting [4]). Further, in assay [1] (setting [3]), the EC50 turned out to be 0.007 µM.
For the molecule `C=CCO[C@@H]1CC[C@@H](C[C@@H](C)[C@@H]2CC(=O)[C@H](C)/C=C(\C)[C@H](O)[C@@H](OC)C(=O)[C@H](C)C[C@H](C)/C=C/C=C/C=C(\C)[C@@H](OC)C[C@@H]3CC[C@@H](C)[C@@](O)(O3)C(=O)C(=O)N3CCCC[C@H]3C(=O)O2)C[C@H]1OC` [43-O-allyl-28-epirapamycin], the IC50 was 0.065 µM at FKBP (setting [2]) and 0.641 to 0.684 µM in the assay with murine splenocyte (setting [4]). In assay [1] (setting [3]), the concentration for a half-maximal effect (EC50) worked out at 0.008 µM.
For `CO[C@H]1C[C@@H]2CC[C@@H](C)[C@@](O)(O2)C(=O)C(=O)N2CCCC[C@H]2C(=O)O[C@H]([C@H](C)C[C@@H]2CC[C@@H](OCc3ccccc3)[C@H](OC)C2)CC(=O)[C@H](C)/C=C(\C)[C@H](O)[C@@H](OC)C(=O)[C@H](C)C[C@H](C)/C=C/C=C/C=C/1C` [43-O-benzyl-28-epirapamycin], the IC50 was 0.063 µM on FKBP (setting [2]) and ~1.2 µM in the assay with murine splenocyte (setting [4]). In assay [1] (setting [3]), the EC50 is 0.012 µM.
For `CO[C@H]1C[C@@H]2CC[C@@H](C)[C@@](O)(O2)C(=O)C(=O)N2CCCC[C@H]2C(=O)O[C@H]([C@H](C)C[C@@H]2CC[C@@H](OC)[C@H](OC)C2)CC(=O)[C@H](C)/C=C(\C)[C@H](O)[C@@H](OC)C(=O)[C@H](C)C[C@H](C)/C=C/C=C/C=C/1C` [43-O-methyl-28-epirapamycin] the same measures were 0.034 µM, 0.02 to 0.031 µM and 0.003 µM.
